In data set [1] the test system is p53 responsive β-lactamase reporter in HCT116 cells. Kind of data set: cells. The conditions noted are these: for EC50: read-out: p53 reporter assay EC50. It is filed as cell-based. The essentials:
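HCT116 cells stably carrying a p53-responsive β-lactamase reporter, seeded at 8000 cells/well, with 0.5% DMSO final. Reporter activity read by ToxBLAzer Dual Screen. Values are geometric means of at least three biological replicates.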
(Reporter assays use an easily measured gene product as a stand-in for the process of interest.)

In data set [2] the test system is Jump-In T-REx CHO-K1 BLA cells. Kind of data set: cells. It is filed as cell-based. Particulars: for EC50: read-out: TETCHO: Counterscreen EC50.
Data set [3] in a line: Solubility assay (kinetic solubility, PBS pH 7). Particulars: pH 7, aqueous buffer, kinetic from dmso stock, pH 7, PBS; read-out: Solubility. It is filed as physicochemical. In short, it runs like this: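 Values derive from peak-area ratios of sample versus a 100 µM standard, scaled by that standard's concentration.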
Data set [4] is described as follows: Circular dichroism (CD) helicity. It is filed as physicochemical. In short, it runs like this:
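Peptide dried from methanol and reconstituted at 1 mM in 1 mM HEPES pH 7.4 with 5% methanol; concentration set by A280. CD spectra recorded 300–190 nm at 25 °C in a 0.2 cm cuvette, converted to mean residue ellipticity and deconvoluted for secondary structure; duplicate means.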

Values after ≈ are worked out from the molar mass of the structure shown. Like-named read-outs stand apart in the source and are kept apart here. Positions of bridges follow the written chain, without caps; N, C: chain ends. Non-standard residues stand in square brackets, D forms with d. Residues, ends and D or L forms follow the SMILES beside them. dPhe(4-CF3) = N[C@H](Cc1ccc(C(F)(F)F)cc1)C(=O)O; dTrp(6-F) = N[C@H](Cc1c[nH]c2cc(F)ccc12)C(=O)O; R5 = C=CCCC[C@@](C)(N)C(=O)O

A word on the EC50: it is the concentration needed to bring the measured effect to its halfway point.

In turn, `CC(=O)N[C@@H](C(=O)N[C@H](C)C(=O)N[C@H](Cc1c[nH]c2cc(F)ccc12)C(=O)N[C@H](Cc1ccc(O)cc1)C(=O)N[C@H](C)C(=O)N[C@]1(C)CCCC=CCCC[C@](C)(C(=O)N[C@H](CC(C)C)C(=O)N[C@H](CO)C(=O)N[C@H](C)C(=O)N[C@H](C)C(=O)N[C@H](C)C(N)=O)NC(=O)[C@@H](CCC(N)=O)NC(=O)[C@@H](CCC(=O)O)NC(=O)[C@@H](Cc2ccc(C(F)(F)F)cc2)NC1=O)[C@H](C)O` [MP-0230] (Ac-[dT][dA][dTrp(6-F)][dY][dA][R5][dPhe(4-CF3)][dE][dQ][R5][dL][dS][dA][dA][dA]-NH2; staple 6-10) had an EPSA in “physchem” of 190 A^2. The “p53 reporter assay % Effect” value is on record as 96.81% in data set [1] (0% FBS 4Hr) and 84.65% in data set [1] (10% FBS 16Hr). Moreover, the EC50 in data set [1] (0% FBS 4Hr) is 1.44 µM; in data set [1] (10% FBS 16Hr) it was 4.34 µM; in data set [2] (0% FBS 4Hr), greater than 50.4 µM; in data set [2] (10% FBS 16Hr) it was greater than 50.4 µM. The results for the “TETCHO: Counterscreen % Effect” value in data set [2] (0% FBS 4Hr) and in data set [2] (10% FBS 16Hr) were 12.86% and -3.99%, respectively. The solubility kinetic in data set [3] came to 140 µM (≈ 253 µg/mL). In addition, in data set [4], the “CD % Helicity” value worked out at 49.95%.

As to `CC(=O)N[C@@H](C(=O)N[C@H](C)C(=O)N[C@H](Cc1c[nH]c2cc(F)ccc12)C(=O)N[C@H](Cc1ccc(O)cc1)C(=O)N[C@H](C)C(=O)N[C@]1(C)CCCC=CCCC[C@](C)(C(=O)N[C@H](CC(C)C)C(=O)N[C@H](CO)C(=O)N[C@H](C)C(=O)N[C@H](C)C(=O)N[C@H](C)C(=O)N[C@H](C)C(=O)N[C@H](C)C(=O)N[C@H](C)C(=O)N[C@H](C)C(=O)N[C@H](C)C(=O)N[C@H](C)C(N)=O)NC(=O)[C@@H](CCC(N)=O)NC(=O)[C@@H](CCC(=O)O)NC(=O)[C@@H](Cc2ccc(C(F)(F)F)cc2)NC1=O)[C@H](C)O` [MP-1230] (Ac-[dT][dA][dTrp(6-F)][dY][dA][R5][dPhe(4-CF3)][dE][dQ][R5][dL][dS][dA][dA][dA][dA][dA][dA][dA][dA][dA]-NH2; staple 6-10), the EPSA in the data set “physchem” amounted to 190 A^2. The results for the “p53 reporter assay % Effect” value in data set [1] (0% FBS 4Hr) and in data set [1] (10% FBS 16Hr) were 14.85% and 35.9%, respectively. The EC50 in data set [1] (0% FBS 4Hr), in data set [1] (10% FBS 16Hr), in data set [2] (0% FBS 4Hr) and in data set [2] (10% FBS 16Hr) was greater than 50.4 µM in each case. Also, the figures for the “TETCHO: Counterscreen % Effect” value in data set [2] (0% FBS 4Hr) and in data set [2] (10% FBS 16Hr) were 16.32% and -1.934%, respectively. Moreover, in data set [3], the solubility kinetic amounted to 16 µM (≈ 35.7 µg/mL). Moreover, in data set [4], the “CD % Helicity” value amounted to 8.3%.

These data come from article PMC10786919, “Design-rules for stapled peptides with in vivo activity and their application to Mdm2/X antagonists” (Nature Communications, 2024).
